Reference: patent publication US12391701B2, “Chromene-based compounds, methods and uses thereof” (University of Minho, priority 2019, dated 2025)
Where two headings read alike, the source gives them in different places.

Columns and labels:
Type in all cases: cell-based
[1] = test system: breast cancer cell line MCF-7; assay: Cell viability assay (MTS), MCF-7; conditions: Homo sapiens, MCF7; 72 h incubation
Experimental: (§1) In an embodiment, the cell growth inhibition and IC50 values of the synthesised and isolated chromene-based compounds were determined as part of the evaluation of the antiproliferative activity of the isolated agents. A complete study on the structure-activity relationship was performed for all the synthesised compounds. The antiproliferative activity against MCF-7 breast cancer cell lines were analysed. […] The non-neoplastic cell line MCF-10A was also used to determine the selectivity of the compounds for the tumour cells. For compounds with an IC50 value (concentration required to reduce cell viability by 50%) higher than 20 μM, the IC50 value was not determined. Selectivity index (SI) was calculated in order to evaluate the cytotoxicity of the tested compounds.
(§2) In an embodiment, three human breast cancer cell lines Hs578T, MDA-MB-468 and MCF-7, and a normal breast cell line MCF-10A, were obtained from ATCC (American Type Culture Collection). The cancer cell lines were cultured in Dulbecco's modified Eagle medium, 4.5 g/l glucose (DMEM, Gibco) supplemented with 10% heating inactivated Fetal Bovine Serum (FBS, Gibco) and 1% antibiotic solution (Penicillin-Streptomycin, Gibco). The normal cell line was cultured in Dulbecco's Modified Eagle Medium: Nutrient Mixture F-12 (DMEM/F12, Gibco) supplemented with 5% heating inactivated FBS (Gibco), 1% antibiotic solution (Penicillin-Streptomycin, Gibco), 1% steroid hormone (Hydrocortisone, Sigma-Aldrich), 0.1% peptide hormone (Insulin, Sigma-Aldrich) and 0.01% protein complex (Cholera Toxin, Gibco). Two distinct human acute myeloid leukemia (AML) cell lines, HL-60 (FAB M2) and KG-1 (erythroleukemia-FAB M6), and one human lymphoblastic leukemia (ALL) cell line, Jurkat (T cell type), were also used. These three cell lines were obtained from German Collection of Microorganisms and Cell cultures (DMSZ®, Deutsche Sammlung von Mikroorganismen and Zellkulturen in German). Cells were cultured in RPMI 1640 medium (Biochrom®-Merck Millipore) supplemented with 10% heating inactivated FBS (Biochrom®-Merck Millipore) and 1% antibiotic/antimitotic mixture (Invitrogen®). Three human glioblastoma (GBM) cell line models, two established and commercially available cell lines (U87MG and GAMG, kind gift from Rui M. Reis) and one primary GBM culture (GLIB) were also used. GBM cells were cultures in DMEM (Biochrom-Merck Millipore), all supplemented with 10% FBS. The Renal cell carcinoma cell lines A498, 786-O, Caki-2 and HK2 were obtained from ATCC. The cancer cell line A498 was cultured in MEM medium (Biochrom®-Merck Millipore), 786-O was cultured in RPMI 1640 medium (Biochrom®-Merck Millipore), Caki-2 was cultured in Mc Coys medium (Biochrom®-Merck Millipore) and HK2 was cultured in RPMI 1640 medium (Biochrom®-Merck Millipore). All the media were supplemented with 10% heat inactivated FBS (Biochrom®-Merck Millipore) and 1% antibiotic/antimitotic mixture (Invitrogen®). All cells were grown in a humidified incubator at 37° C. and 5% CO2. For all assays, DMSO (Dimethyl Sulfoxide, Sigma-Aldrich) controls were used.
(§3) In an embodiment, cell viability assays were performed. MCF-7, Hs578T and MCF-10A cells were plated in triplicate in 96-multiwell culture plates, at 3000 cells […], or 5000 cells […] for MDA-MB-468 (100 μL/well). The cells were then allowed to adhere in complete medium, over a period of 18-20 hours. Cells were subsequently treated with 7 different concentrations (from 0.1 to 40 μM or 5 to 60 μM) of compounds or control in fresh medium. HL-60, KG-1 and Jurkat cell lines were plated in 96-multiwell culture plates at 50.000 cells/100 μL per well and treated with different concentrations (from 0.001 to 2 μM) of the compounds described (or control). Cells were plated, in triplicate, at an initial density of 2000 cells/well for GAMG, 4000 cells/well for GL18 and 6000 cells/well for U87MG, in 96-well plates, and allowed to adhere for 18-20 hours. […]

[2] = test system: renal carcinoma cell line 786-O; assay: Cell viability (sulforhodamine B), 786-O; conditions: Homo sapiens, 786-0; Table 5
Experimental: (§4) In an embodiment, the antiproliferative activity of the compounds was further determined against renal carcinoma cell lines and non-neoplastic kidney cell line.
as §2
(§5) In an embodiment, cell viability assays were performed. MCF-7, Hs578T and MCF-10A cells were plated in triplicate in 96-multiwell culture plates, at 3000 cells per mL, or 5000 cells per mL for MDA-MB-468 (100 μL/well). The cells were then allowed to adhere in complete medium, over a period of 18-20 hours. Cells were subsequently treated with 7 different concentrations (from 0.1 to 40 μM or 5 to 60 μM) of compounds or control in fresh medium. HL-60, KG-1 and Jurkat cell lines were plated in 96-multiwell culture plates at 50.000 cells/100 μL per well and treated with different concentrations (from 0.001 to 2 μM) of the compounds described (or control). Cells were plated, in triplicate, at an initial density of 2000 cells/well for GAMG, 4000 cells/well for GL18 and 6000 cells/well for U87MG, in 96-well plates, and allowed to adhere for 18-20 hours. Cells were then treated with different concentrations of the compounds (0.005 to 100 μM) or with control. A498 and 786-O cells were plated at 2000 cells per mL, Caki-2 cells were plated at 3000 cells per mL and HK2 cells were plated at 2000 cells per mL in triplicate, in 96-multiwell culture plates (100 μL/well), and allowed to adhere over a period of 18-20 hours in complete medium. The cells were then treated with 7 different concentrations (from 0.1 to 40 μM or 5 to 60 μM) of compounds or control in fresh medium. […]

[3] = test system: non-neoplastic cell line MCF-10A; assay: Cell viability assay (MTS), MCF-10A; conditions: Homo sapiens, 72 h incubation
Experimental: as §1, §2, §3

[4] = test system: renal carcinoma cell line Caki-2; assay: Cell viability (sulforhodamine B), Caki-2; conditions: Homo sapiens, Table 5
Experimental: as §4, §2, §5

[5] = test system: non-neoplastic cell line (HK2); assay: Cell viability, HK2
Experimental: as §4, §2, §5

[6] = Table 6, read-out: IC50 (μM) HK2

SMILES | IC50 [1] [nM] | IC50 [2] [nM] | IC50 [3] [nM] | IC50 [4] [nM] | IC50 ([5]; Table 5, read-out: IC50 HK2) [µM] | IC50 [5, 6] [µM]
COc1cccc2c1Oc1nc(-c3ccccc3)[nH]c1C2 [MC350, 5-methoxy-2-phenyl-3,9-dihydrochromeno[2,3-d]imidazoles] | 740 | 513 | 8460 | 394 | 21.5 | 21.5
COc1cccc2c1Oc1nc(-c3ccccc3F)[nH]c1C2C1c2cccc(OC)c2Oc2nc(-c3ccccc3F)[nH]c21 (stereo not drawn) [MC369, 2,2′-bis(2-fluorophenyl)-5,5′-dimethoxy-1,1,9,9′-tetrahydro-9,9′-bichromeno[2,3-]imidazoles] | 260 | 53 | > 20000 | 109 | 0.83 | –
COc1cccc2c1Oc1nc(-c3ccc(F)cc3)[nH]c1C2C1c2cccc(OC)c2Oc2nc(-c3ccc(F)cc3)[nH]c21 (stereo not drawn) [MC406, 2,2′-bis(4-fluorophenyl)-5,5′-dimethoxy-1,1,9,9′-tetrahydro-9,9′-bichromeno[2,3-]imidazoles] | 200 | 84 | 12700 | 178 | 0.31 | –
COc1cccc2c1Oc1nc(-c3ccccc3F)[nH]c1C2 [MC407, 2-(2-fluorophenyl)-5-methoxy-3,9-dihydrochromeno[2,3-d]imidazoles] | 670 | 673 | 3930 | 433 | 1.03 | –
COc1cccc2c1Oc1nc(-c3ccc(Br)cc3)[nH]c1C2 [MC408, 2-(4-bromophenyl)-5-methoxy-3,9-dihydrochromeno[2,3-d]imidazoles] | 620 | 64 | 2990 | 89 | 3.49 | 3.49
COc1cccc2c1Oc1nc(-c3ccc(F)cc3)[nH]c1C2 [MC409, 2-(4-fluorophenyl)-5-methoxy-3,9-dihydrochromeno[2,3-d]imidazoles] | 650 | 495 | 14300 | 359 | 3.49 | 3.49
COc1cccc2c1Oc1nc(-c3cc(F)cc(F)c3O)[nH]c1C2 [MC410, 2,4-difluoro-6-(5-methoxy-3,9-dihydrochromeno[2,3-d]imidazol-2-yl)phenol] | 3530 | 446 | > 30000 | 8530 | 23.1 | 23.1
COc1ccccc1-c1nc2c([nH]1)Cc1cccc(OC)c1O2 [MC411, 5-methoxy-2-(2-methoxyphenyl)-3,9-dihydrochromeno[2,3-]imidazoles] | 1710 | 3730 | 6820 | 3960 | 4.73 | 4.73
COc1cccc2c1Oc1nc(-c3ccc(O)cc3)[nH]c1C2 [MC413, 4-(5-methoxy-3,9-dihydrochromeno[2,3-d]imidazol-2-yl)phenol] | 1090 | 728 | > 20000 | 381 | 10.3 | 10.3
CCOc1ccc(-c2nc3c([nH]2)Cc2cccc(OC)c2O3)cc1 [MC415, 2-(4-ethoxyphenyl)-5-methoxy-3,9-dihydrochromeno[2,3-d]imidazoles] | 1640 | 221 | 1900 | 62 | 5.24 | 5.24
COc1ccc(-c2nc3c([nH]2)Cc2cccc(OC)c2O3)c(Br)c1O [MC416, 2-bromo-6-methoxy-3-(5-methoxy-3,9-dihydrochromeno[2,3-]imidazol-2-yl)phenol] | 1040 | 3140 | 1990 | 2540 | 4.72 | 4.72
COc1cccc2c1Oc1nc(-c3ccc(Br)cc3)[nH]c1C2C1c2cccc(OC)c2Oc2nc(-c3ccc(Br)cc3)[nH]c21 (stereo not drawn) [MC421, 2,2′-bis(4-bromophenyl)-5,5′-dimethoxy-1,1,9,9′-tetrahydro-9,9′-bichromeno[2,3-]imidazoles] | 310 | 77 | > 30000 | 431 | 2.49 | 2.49
